# Results: patent US5190783A, “Primary amide esters as low calorie fat mimetics” (Nabisco, Inc., priority 1991, dated 1993)
# Test: caloric availability by in vivo animal feeding study (body weight gain)
# Set-up: species or system Sprague-Dawley rats
# Conditions: rats, diet of 50% fort and 21% test compound, 14 days
# From the text: This example illustrates how the novel fat mimetics of this invention are screened for caloric availability by a carefully controlled in vivo animal feeding study.
# An experimental relationship between total calories ingested and animal body weight gain is established by monitoring the body weight gain associated with consumption of a nutritionally balanced diet containing varying concentrations of a reference substance such as corn oil which has a known caloric availability. Correlations between total calories ingested and body weight gain are excellent (r=0.99).
# Caloric availability of a test material is evaluated by substituting a specific weight of the test material for the reference substance and observing the body weight gain. The gain in body weight is equated to a total number of calories using the correlation previously established for the reference data. The estimated number of calories ingested are divided by the weight of test material to give the apparent calories per gram for the test material. Generally speaking, in these bioavailability studies, the degree of perianal pelt soiling correlates with reduced bioavailability.
# The test animals are six-week-old male Sprague-Dawley rats obtained from the Portage, Michigan facility of the Charles River Laboratories, Inc. After acclimation for 15 days, the test duration is 14 days. […]
compound,measurement,value
"CCCCCCCC/C=C\CCCCCCCC(=O)NCC(COC(=O)CCCCCCC/C=C\CCCCCCCC)OC(=O)CCCCCCC/C=C\CCCCCCCC (stereo not shown) [Example 2, 2,3-s(oleyoyloxy)propyl oleamide]",calories upon being metabolized (apparent calories per gram),about 3.3 kcal/gram
